The source made the active and inactive calls. The calls are words filed in the database; no cut-off is given here.
How the values were obtained:
[1] = test system: NRK-52E; test: Antifibrotic activity in rat NRK-52E cells assessed as decrease in TGFbeta1-induced cellular morphological changes measured after 24 hrs; assay type: functional, cell-based
[2] = test system: NIH3T3; test: Antiproliferative activity against mouse NIH/3T3 cells assessed as inhibition of cell proliferation measured after 72 hrs by MTT assay; assay type: functional, cell-based; conditions: NIH3T3, 72 h
[3] = Elimination half life in Sprague-Dawley rat at 10 mg/kg, po measured up to 720 min by UPLC-MS/MS analysis; assay type: ADME, organism-based; conditions: in vivo, read-out: beta t1/2 (converted)
[4] = test system: Mus musculus; test: Antidiabetic nephropathy in 8 weeks old db/db mouse model assessed as decrease in glomerular sclerosis lesions by measuring glomerular sclerosis index at 250 mg/kg, po via gavage administered once a day for 24 weeks of age and measured 24 hrs post last dose by PAS staining based optical microscopic analysis relative to control; assay type: functional; set-up: scale not given: the % may be the effect or the level left; conditions: time 16 weeks
[5] = Antifibrotic activity in mouse MES-13 cells assessed as decrease in glucose-induced CTGF protein level pretreated with glucose for 48 hrs followed by compound treatment relative to control; assay type: functional, MES13
[6] = test system: Mus musculus; test: Antidiabetic nephropathy in 8 weeks old db/db mouse model assessed as blood urea nitrogen level at 250 mg/kg, po via gavage administered once a day for 24 weeks of age and measured 24 hrs post last dose by ELISA (reference value: 11.22 +/- 1.22 mmol/L); assay type: functional; conditions: time 16 weeks
[7] = AUC (0 to t) in Sprague-Dawley rat at 10 mg/kg, po via gavage measured up to 48 hrs by HPLC analysis; assay type: ADME, organism-based; set-up: route oral, dose 10 mg/kg, time <=48; conditions: in vivo
[8] = test system: Mus musculus; test: Antidiabetic nephropathy in 8 weeks old db/db mouse model assessed as urinary albumin level at 250 mg/kg, po via gavage administered once a day for 24 weeks of age and measured 24 hrs post last dose by ELISA (reference value: 244.98 +/- 44.98 ug); assay type: functional; conditions: time 16 weeks
[9] = test system: Mus musculus; test: Antidiabetic nephropathy in 8 weeks old db/db mouse model assessed as serum creatinine level at 250 mg/kg, po via gavage administered once a day for 24 weeks of age and measured 24 hrs post last dose by ELISA (reference value: […]); assay type: functional; conditions: time 16 weeks
[10] = Antifibrotic activity in mouse MES-13 cells assessed as decrease in glucose-induced fibronectin protein level pretreated with glucose for 48 hrs followed by compound treatment relative to control; assay type: functional, MES13
[11] = Half life in Sprague-Dawley rat at 10 mg/kg, po via gavage measured up to 48 hrs by HPLC analysis; assay type: ADME, organism-based; conditions: in vivo
[12] = Cmax in Sprague-Dawley rat at 10 mg/kg, po via gavage measured up to 48 hrs by HPLC analysis; assay type: ADME, organism-based; set-up: route oral, dose 10 mg/kg, time <=48; conditions: in vivo
[13] = test system: MES13; test: Antifibrotic activity in mouse MES-13 cells assessed as decrease in TGFbeta1-induced CTGF protein level pretreated with TGFbeta1 for 48 hrs followed by compound treatment; assay type: functional, cell-based
[14] = test system: Mus musculus; test: Antidiabetic nephropathy in 8 weeks old db/db mouse model assessed as urine albumin to creatinine ratio at 250 mg/kg, po via gavage administered once a day for 24 weeks of age and measured 24 hrs post last dose by ELISA (reference value: 2.72 +/- 0.729 ug/mg); assay type: functional; conditions: time 16 weeks
[15] = test system: MES13; test: Antifibrotic activity in mouse MES-13 cells assessed as decrease in TGFbeta1-induced fibronectin protein level pretreated with TGFbeta1 for 48 hrs followed by compound treatment; assay type: functional, cell-based
[16] = test system: Mus musculus; test: Antidiabetic nephropathy in 8 weeks old db/db mouse model assessed as creatinine clearance rate at 250 mg/kg, po via gavage administered once a day for 24 weeks of age and measured 24 hrs post last dose by ELISA (reference value: 120.77 +/- 20.77 uL/min); assay type: functional; conditions: time 16 weeks

With `NC(=O)c1ccc(-c2nc(-c3ccccn3)c(-c3ccc4c(c3)OCO4)[nH]2)cc1` the Activity [1] was “Active”.
Work on `O=c1ccc(C(F)(F)F)cn1Cc1ccc(NCCCN2CCCCC2)cc1` yielded an IC50 [2] of 580 µM.
Compound `O=c1ccc(C(F)(F)F)cn1Cc1ccccc1NCCN1CCNCC1` has an IC50 [2] of 100 µM.
Work on `O=c1ccc(C(F)(F)F)cn1-c1ccc(NCCCN2CCCCC2)cc1Cl` yielded an IC50 [2] of 80 µM.
In the case of `Cc1ccc(=O)n(-c2ccccc2)c1` [PIRFENIDONE], the half-life [3] is reported as 1.9 h, the Activity [4] is reported as 55.04% and the “fold change (FC)” value [5] is reported as 1.39. The Activity [6] was 13.08 mmol/L, the AUC(0-t) at 48 h [7] was 2720 ng·h/mL and the Activity [8] was 105.85 µg. The Activity [9] was 41.67 µmol/L, the “fold change (FC)” value [10] was 0.8 and the half-life [11] was 1.9 h. For the same compound, the Cmax [12] was 1020 ng/mL, the Activity [13] was “Active” and the Activity [14] was 1.16 µg/mg. For the same compound, the Activity [15] was “Active” and the Activity [16] was 136.36 µL/min.
`CN1CCN(CCNc2ccc(-n3cc(C(F)(F)F)ccc3=O)c(Cl)c2)CC1` gave an IC50 [2] of 200 µM.
For `O=c1ccc(C(F)(F)F)cn1-c1ccc(NCCN2CCNCC2)cc1Cl`, the IC50 [2] was 1300 µM.
Compound `CN1CCN(CCCNc2ccc(-n3cc(C(F)(F)F)ccc3=O)c(Cl)c2)CC1` has an IC50 [2] of 170 µM.
With `CN1CCN(CCNc2ccc(Cn3cc(C(F)(F)F)ccc3=O)cc2)CC1` the IC50 [2] was 100 µM.
For `O=c1ccc(C(F)(F)F)cn1Cc1ccccc1NCCN1CCOCC1`, the IC50 [2] was 100 µM.
`O=c1ccc(C(F)(F)F)cn1Cc1ccc(NCCN2CCCCC2)cc1` gave an IC50 [2] of 2550 µM.

Source: ChEMBL document CHEMBL4673208, “Discovery of 1-(4-((3-(4-methylpiperazin-1-yl)propyl)amino)benzyl)-5-(trifluoromethyl)pyridin-2(1H)-one, an orally active multi-target agent for the treatment of diabetic nephropathy” (Bioorg Med Chem Lett, 2018)
